Holding throughout (format): cell-based
The target in assay [1] is 320 non-olfactory GPCRs (Homo sapiens, UniProt P47211).
The target in assay [2] is 320 non-olfactory GPCRs (Homo sapiens, UniProt P41143). The conditions noted are these: receptor OPRD1; replicate values, Fig_4g.
Assay [3] concerns the target 320 non-olfactory GPCRs (Homo sapiens, UniProt P21462).
Assay [4] addresses 320 non-olfactory GPCRs (Homo sapiens, UniProt O43193). The conditions noted are these: receptor MLNR; replicate values, Fig_4g.

SMILES strings stand for the structures. “And” between values parts separate entries of the source, which are not always exact repeats. Equal entries are not always repeated.
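For Fold of Basal in this document: compound tested at 1 µM final concentration.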
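For GPCRome agonism screen response in this document: fold over basal response of each receptor without drug.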

320 non-olfactory GPCRs (Homo sapiens, UniProt P41143), sequence (P41143 whole entry): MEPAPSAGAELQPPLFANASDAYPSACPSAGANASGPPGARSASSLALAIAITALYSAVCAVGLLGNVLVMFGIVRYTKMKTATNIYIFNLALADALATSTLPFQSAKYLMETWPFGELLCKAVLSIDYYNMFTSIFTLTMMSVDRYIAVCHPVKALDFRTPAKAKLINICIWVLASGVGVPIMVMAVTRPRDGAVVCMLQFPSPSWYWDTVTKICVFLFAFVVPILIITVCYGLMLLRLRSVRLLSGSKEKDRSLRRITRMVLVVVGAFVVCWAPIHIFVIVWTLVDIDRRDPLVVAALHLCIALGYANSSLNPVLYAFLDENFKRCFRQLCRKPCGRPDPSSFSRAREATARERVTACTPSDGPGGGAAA
320 non-olfactory GPCRs (Homo sapiens, UniProt O43193), sequence (O43193 whole entry): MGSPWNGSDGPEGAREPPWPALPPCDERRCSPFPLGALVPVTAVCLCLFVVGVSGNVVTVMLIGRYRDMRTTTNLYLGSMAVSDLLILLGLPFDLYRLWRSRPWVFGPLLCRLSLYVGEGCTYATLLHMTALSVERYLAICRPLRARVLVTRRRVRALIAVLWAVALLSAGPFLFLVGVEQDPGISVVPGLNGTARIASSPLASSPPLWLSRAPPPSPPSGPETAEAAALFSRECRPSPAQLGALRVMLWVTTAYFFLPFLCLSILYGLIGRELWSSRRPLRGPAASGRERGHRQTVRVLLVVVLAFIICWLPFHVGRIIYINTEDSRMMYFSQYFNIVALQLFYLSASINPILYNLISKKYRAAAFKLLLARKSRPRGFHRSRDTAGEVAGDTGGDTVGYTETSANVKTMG
320 non-olfactory GPCRs (Homo sapiens, UniProt P21462), sequence (P21462 whole entry): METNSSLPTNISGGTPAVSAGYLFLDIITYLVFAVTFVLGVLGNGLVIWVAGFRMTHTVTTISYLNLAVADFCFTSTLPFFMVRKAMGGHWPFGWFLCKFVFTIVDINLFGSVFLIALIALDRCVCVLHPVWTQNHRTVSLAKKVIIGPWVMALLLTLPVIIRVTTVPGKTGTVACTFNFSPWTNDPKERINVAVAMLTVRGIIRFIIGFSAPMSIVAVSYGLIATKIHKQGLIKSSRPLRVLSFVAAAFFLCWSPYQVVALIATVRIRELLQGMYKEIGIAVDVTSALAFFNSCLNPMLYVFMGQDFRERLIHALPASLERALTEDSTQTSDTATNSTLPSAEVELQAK
320 non-olfactory GPCRs (Homo sapiens, UniProt P47211), sequence (P47211 whole entry): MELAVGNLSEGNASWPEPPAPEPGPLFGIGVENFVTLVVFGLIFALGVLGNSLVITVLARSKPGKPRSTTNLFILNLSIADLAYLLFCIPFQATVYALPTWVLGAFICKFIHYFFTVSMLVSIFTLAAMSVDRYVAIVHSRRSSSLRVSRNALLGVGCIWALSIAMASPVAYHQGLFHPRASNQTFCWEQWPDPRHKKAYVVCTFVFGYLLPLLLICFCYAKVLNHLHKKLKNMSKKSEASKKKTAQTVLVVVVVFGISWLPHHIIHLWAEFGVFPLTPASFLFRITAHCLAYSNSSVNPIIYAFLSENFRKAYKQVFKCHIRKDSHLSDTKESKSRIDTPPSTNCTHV

In the case of `CCOc1cccc2cc(C(C)NCC3(O)CCCCC3)oc12` (stereo not shown) [O4LE6], the “Fold of Basal” value in assay [1] was 0.9505 and 0.7559 and 1.028 and 0.7017; in assay [3], 0.6589 and 0.3791 and 0.4925 and 0.3481. The “GPCRome agonism screen response” value in assay [2] was 1.015 and 0.7396 and 0.6746 and 0.921; in assay [4] it was 1.48 and 1.279 and 0.7077 and 1.039.

The values above are taken from PMC7044277 (Nature Communications, 2020).
